The text below walks through data of ChEMBL document CHEMBL4359901, “Cyclic enaminone as new chemotype for selective cyclooxygenase-2 inhibitory, anti-inflammatory, and analgesic activities” (Eur J Med Chem, 2019).

Test [1] concerns the target Prostaglandin G/H synthase 1 (Ovis aries) (UniProt P05979). The test can be described thus: Inhibition of ovine COX1 assessed as reduction in PGF2alpha at 10 uM incubated for 2 mins using arachidonic acid as substrate by ELISA relative to control. For orientation: An ELISA detects its analyte on a solid surface through an enzyme-linked reagent.
The target in test [2] is Prostaglandin G/H synthase 2 (Homo sapiens) (UniProt P35354). Put plainly: Inhibition of recombinant human COX2 assessed as reduction in PGF2alpha at 10 uM incubated for 2 mins using arachidonic acid as substrate by ELISA relative to control.
Test [3] relates to Rattus norvegicus. Put plainly: Analgesic activity in Wistar albino rat assessed as reaction time at 25 mg/kg, ip measured after 180 mins for 15 secs by hot plate method (reference value: 3.87 +/- 0.38 sec). It is filed as functional. For orientation: In hot-plate and tail-flick tests a longer latency is read as antinociception.
Test [4] deals with Rattus norvegicus. The test can be described thus: Antiinflammatory activity in Wistar albino rat assessed as reduction in carrageenan-induced paw edema at 25 mg/kg, ip measured after 2 hrs by plethysmometric method (reference value: 1.58 +/- 0.21 ml). Format: functional. In general terms: The carrageenan paw model is a standard test of acute inflammation.
Test [5] can be described thus: Antioxidant activity assessed as DPPH radical scavenging activity at 20 uM/ml incubated for 20 mins by spectrophotometric method relative to control. Format: functional.
In test [6] the test system is Rattus norvegicus. The test can be described thus: Analgesic activity in Wistar albino rat assessed as reaction time at 25 mg/kg, ip measured after 120 mins for 15 secs by hot plate method (reference value: 4.32 +/- 0.52 sec). Format: functional.
A short description of test [7]: Selectivity index, ratio of IC50 for inhibition of ovine COX1 to IC50 for inhibition of recombinant human COX2.
In test [8] the test system is Rattus norvegicus. Put plainly: Antiinflammatory activity in Wistar albino rat assessed as reduction in carrageenan-induced paw volume at 12.5 mg/kg, ip measured after 1 hr by plethysmometric method (reference value: 1.43 +/- 0.19 ml). It is filed as functional.
Test [9] can be described thus: Antioxidant activity assessed as DPPH radical scavenging activity at 10 uM/ml incubated for 20 mins by spectrophotometric method relative to control. Format: functional.
Test [10] in a line: Antioxidant activity assessed as DPPH radical scavenging activity incubated for 20 mins by spectrophotometric method. Format: functional.
Test [11] relates to Rattus norvegicus. Put plainly: Antiinflammatory activity in Wistar albino rat assessed as reduction in carrageenan-induced paw edema at 25 mg/kg, ip measured after 3 hrs by plethysmometric method (reference value: 1.75 +/- 0.33 ml). It is filed as functional.
In test [12] the test system is Rattus norvegicus. The test can be described thus: Analgesic activity in Wistar albino rat assessed as reaction time at 12.5 mg/kg, ip measured after 120 mins for 15 secs by hot plate method (reference value: 4.32 +/- 0.52 sec). Format: functional.
In test [13] the test system is Rattus norvegicus. Put plainly: Antiinflammatory activity in Wistar albino rat assessed as reduction in carrageenan-induced paw volume at 12.5 mg/kg, ip measured after 3 hrs by plethysmometric method (reference value: 1.75 +/- 0.33 ml). Format: functional.
Test [14] concerns Rattus norvegicus. Put plainly: Analgesic activity in Wistar albino rat assessed as reaction time at 12.5 mg/kg, ip measured after 30 mins for 15 secs by hot plate method (reference value: 4.21 +/- 0.41 sec). Format: functional.
In test [15] the test system is Rattus norvegicus. The test can be described thus: Antiinflammatory activity in Wistar albino rat assessed as reduction in carrageenan-induced paw edema at 25 mg/kg, ip measured after 1 hr by plethysmometric method (reference value: 1.43 +/- 0.19 ml). It is filed as functional.
Test [16] can be described thus: Antioxidant activity assessed as DPPH radical scavenging activity at 80 uM/ml incubated for 20 mins by spectrophotometric method relative to control. Format: functional.
Test [17] relates to Rattus norvegicus. The test can be described thus: Analgesic activity in Wistar albino rat assessed as reaction time at 25 mg/kg, ip measured after 30 mins for 15 secs by hot plate method (reference value: 4.21 +/- 0.41 sec). Format: functional.
Test [18] concerns Rattus norvegicus. The test can be described thus: Antiinflammatory activity in Wistar albino rat assessed as reduction in carrageenan-induced paw volume at 12.5 mg/kg, ip measured after 2 hrs by plethysmometric method (reference value: 1.58 +/- 0.21 ml). It is filed as functional.
Test [19] in a line: Antioxidant activity assessed as DPPH radical scavenging activity at 100 uM/ml incubated for 20 mins by spectrophotometric method relative to control. Format: functional.
For test [20], the system named is Rattus norvegicus. Put plainly: Analgesic activity in Wistar albino rat assessed as reaction time at 12.5 mg/kg, ip measured after 180 mins for 15 secs by hot plate method (reference value: 3.87 +/- 0.38 sec). It is filed as functional.
Test [21] can be described thus: Antioxidant activity assessed as DPPH radical scavenging activity at 40 uM/ml incubated for 20 mins by spectrophotometric method relative to control. It is filed as functional.
The test system of test [22] is Rattus norvegicus. The test can be described thus: Analgesic activity in Wistar albino rat assessed as reaction time at 12.5 mg/kg, ip measured after 60 mins for 15 secs by hot plate method (reference value: 4.67 +/- 0.52 sec). It is filed as functional.
Test [23] concerns Rattus norvegicus. Put plainly: Analgesic activity in Wistar albino rat assessed as reaction time at 25 mg/kg, ip measured after 60 mins for 15 secs by hot plate method (reference value: 4.67 +/- 0.52 sec). Format: functional.
Test [24] is described as follows: Antioxidant activity assessed as DPPH radical scavenging activity at 60 uM/ml incubated for 20 mins by spectrophotometric method relative to control. Format: functional.

For orientation: inhibition means how much of the control response was suppressed. What is called IC50 is the concentration that inhibits the measured activity by half.

Take `O=C1C=C(Nc2ccc(Cl)cc2)CC1`: the inhibition in test [1] was determined as 23.7%; in test [2], 33.5%.
For `O=C1C=C(NCc2ccco2)CCC1` the same measures were 27.2% and 48.4%.
Take `Cc1ccc(NC2=CC(=O)CCC2)cc1`: the figures for the inhibition in test [1] and in test [2] were 11.2% and 34.2%, respectively.
For `COc1ccc(NC2=CC(=O)CCC2)cc1` the same measures were 10.7% and 36.6%.
The matching figures for `CC(=O)c1ccc(NC2=CC(=O)CCC2)cc1`: 65.5% and 41.9%.
The matching figures for `O=C1C=C(Nc2cc(Cl)ccc2F)CCC1`: 32% and 47.4%.
In the case of `O=C1C=C(Nc2ccc(Cl)cc2)CCC1`, the Time in test [3] amounted to 8.2 s; in test [6] it was 8.83 s; in test [12], 7.16 s; in test [14] it was 5.34 s; in [17], 5.48 s; in [20], 7.24 s. For the same compound, the Time is 7.09 s in test [22] and 7.72 s in [23]. Further, the Activity in test [4] stood at 1.24 mL; in test [5], 24%; in test [8], 1.23 mL; in [9] it was 12.7%; in test [11], 1.19 mL; in test [13] it was 1.23 mL. The Activity in test [15] is 1.29 mL; in test [16], 61.3%; in test [18] it was 1.22 mL; in [19], 78.2%; in test [21] it was 33.7%; in [24], 46.7%. The Ratio IC50 in [7] came to 74.1. Further, the IC50 in [10] turned out to be 71.2 µM. Besides, the inhibition in test [1] was 12.9%; in test [2], 88.6%.
Regarding `O=C1C=C(Nc2ccc([N+](=O)[O-])cc2)CCC1`, the inhibition in [1] stood at 31%; in test [2], 24.2%.
For the compound `O=C1C=C(NCc2ccco2)CC1`, the inhibition in test [1] stood at 30.5%; in test [2], 41.4%.
The matching figures for `O=C1C=C(N2CCCC2)CCC1`: 12.5% and 45.6%.
The matching figures for `O=C1C=C(Nc2ccccc2)CCC1`: 19.7% and 41.9%.
For `CC1(C)CC(=O)C=C(NCc2ccco2)C1` the same measures were 28.6% and 43.9%.
As to `O=C1C=C(NN2CCCCC2)CCC1`, the inhibition turned out to be 11.3% in [1] and 43.2% in test [2].
Consider `O=C1C=C(Nc2ccc(F)cc2)CC1`, for which the inhibition was found to be 43.5% in test [1] and 22.2% in test [2].
The matching figures for `N#Cc1ccc(NC2=CC(=O)CCC2)cc1`: 46.5% and 47.1%.
Take `O=C1O[C@H]([C@@H](O)CO)C(O)=C1O` [ASCORBIC ACID]: the Activity amounted to 50.8% in [5]; 27.1% in test [9]; 100% in test [16]; 74.7% in test [21]; 91.1% in [24]. In addition, in [10], the IC50 is less than 20 µM.
In the case of `O=C1C=C(Nc2ccc(F)cc2)CCC1`, the inhibition in [1] stood at 14.3%; in test [2] it was 55.6%.
For `CC1(C)CC(=O)C=C(Nc2ccc(F)cc2)C1` the same measures were 34% and 44.5%.
The matching figures for `CSc1ccc(NC2=CC(=O)CCC2)cc1`: 12.8% and 27.8%.
The matching figures for `CC1(C)CC(=O)C=C(Nc2ccc(Cl)cc2)C1`: 16.4% and 42.6%.
With `O=C1C=C(NCc2ccccc2)CCC1`, the inhibition in [1] is 24.2%; in test [2], 40.5%.
On to `O=C1C=C(Nc2nc3ccccc3s2)CCC1`, for which the values for the inhibition in test [1] and in test [2] were 5.14% and 34%, respectively.
With `CC(C)(C)OC(=O)N(C1=CC(=O)CCC1)c1ccc(Cl)cc1`, the Time in test [3] is 7.85 s; in test [6], 9.98 s; in test [12], 7.99 s; in test [14], 5.59 s; in [17], 6.53 s; in test [20], 7.95 s. Also, the results for the Time in test [22] and in [23] were 6.29 s and 6.87 s, respectively. The Activity in test [4] is 1.24 mL; in test [5] it was 36.5%; in [8] it was 1.24 mL; in test [9] it was 23.1%; in test [11], 1.19 mL; in test [13], 1.18 mL. Also, the Activity was determined as 1.3 mL in test [15]; 77.2% in [16]; 1.28 mL in test [18]; 89.1% in test [19]; 49.6% in test [21]; 63% in test [24]. In addition, in test [7], the Ratio IC50 was determined as 19.4. Besides, in test [10], the 50% inhibitory concentration (IC50) was 42.6 µM. Besides, the values for the inhibition in [1] and in test [2] were 30.5% and 73.5%, respectively.
